Legend:
[1] = Brain penetration experiment; format: in vivo, mice; conditions: mouse, ip, 5 mg/kg
[2] = test system: CRL-8155 human lymphocytic cells; conditions: CRL-8155 cell line, 48 hours
[3] = test system: Type I RH strain T. gondii
[4] = test system: panel of ∼80 diverse human kinases; conditions: read-out: IC50s of the kinases inhibited below 1 μM; three of the 80 kinases

For CCOc1ccc2cc(-c3nn(C(C)(C)C)c(N)c3C(N)=O)cnc2c1 [Compound 1], the Kp [1] was 0.158, the cytotoxicity [2] was over 30 µM and the “T. gondii infection, peritoneal parasite count (in words)” value ([3]; po for 5 days, twice daily) was “significantly reduced T. gondii infection”.
With CCOc1ccc2cc(-c3nn(CC4CC4)c(N)c3C(N)=O)cnc2c1 [Compound 6] the cytotoxicity [2] was over 40 µM.
In the case of CCOc1ccc2cc(-c3nn(C4CCC4)c(N)c3C(N)=O)cnc2c1 [Compound 7], the cytotoxicity [2] is reported as over 40 µM.
For CCOc1ccc2cc(-c3nn(C4CCCC4)c(N)c3C(N)=O)cnc2c1 [Compound 8], the cytotoxicity [2] was over 40 µM.
For CCOc1ccc2cc(-c3nn(C4CCCCCC4)c(N)c3C(N)=O)cnc2c1 [Compound 11], the cytotoxicity [2] was over 40 µM.
CCOc1ccc2cc(-c3nn(CC(C)(C)CO)c(N)c3C(N)=O)cnc2c1 [Compound 16] gave a cytotoxicity [2] of over 40 µM.
For CCOc1ccc2cc(-c3nn(C(C)(C)C)c(N)c3C(N)=O)ccc2n1 [Compound 17], the cytotoxicity [2] was over 40 µM.
Compound CCOc1ccc2cc(-c3nn(CC4CC4)c(N)c3C(N)=O)ccc2n1 [Compound 19] has a cytotoxicity [2] of over 40 µM.
CCOc1ccc2cc(-c3nn(CC(C)(C)CO)c(N)c3C(N)=O)ccc2n1 [Compound 22] showed a cytotoxicity [2] of over 40 µM.
CC(C)(C)n1nc(-c2cnc3cc(F)ccc3c2)c(C(N)=O)c1N [Compound 23] gave a cytotoxicity [2] of over 40 µM.
With COc1ccc2cc(-c3nn(C(C)(C)C)c(N)c3C(N)=O)cnc2c1 [Compound 28] the cytotoxicity [2] was over 40 µM.
Work on CC(C)Oc1ccc2cc(-c3nn(C(C)(C)C)c(N)c3C(N)=O)cnc2c1 [Compound 30] yielded a cytotoxicity [2] of over 40 µM.
CCCOc1ccc2cc(-c3nn(C(C)(C)C)c(N)c3C(N)=O)cnc2c1 [Compound 31] gave a cytotoxicity [2] of over 40 µM.
CC(C)(C)n1nc(-c2cnc3cc(OCC4CC4)ccc3c2)c(C(N)=O)c1N [Compound 32] showed a cytotoxicity [2] of over 40 µM.
In the case of CC(C)(C)n1nc(-c2ccc3nc(OC4CC4)ccc3c2)c(C(N)=O)c1N [Compound 35], the cytotoxicity [2] is reported as over 40 µM, the “T. gondii in the peritoneal fluid (in words)” value ([3]; 20 mg/kg) is reported as “eliminated T. gondii from the peritoneal fluid” and the “death of treated mice” value ([3]; 50 mg/kg group, po) is reported as “one mouse in the 35, 50 mg/kg group died on the fifth day of treatment”. For the same compound, the IC50 [4] was 200 to 500 nM.
CC(C)(C)n1nc(-c2ccc3nc(OC4CCC4)ccc3c2)c(C(N)=O)c1N [Compound 37] showed a cytotoxicity [2] of over 40 µM.
